Where a name gives a salt, the structure may show the parent alone.
What follows are molecules tested against T1, human V1a receptor (Homo sapiens, UniProt P37288) (assay: human V1a receptor binding (3H-Vasopressin SPA, HEK293 membranes)). Details: 3H-Vasopressin displacement, membranes of HEK293 cells transiently transfected with human V1a; Ki by Cheng-Prussoff; read-out: pKi (hV1a) (converted).
T1 construct: expressed in transfected cells; host or cells: HEK293 cells, transiently transfected; membranes prepared
Experimental: The human V1a receptor was cloned by RT-PCR from total human liver RNA. The coding sequence was subcloned in an expression vector after sequencing to confirm the identity of the amplified sequence. […] Cell membranes were prepared from HEK293 cells transiently transfected with the expression vector and grown in 20 liter fermenters with the following protocol.
50 g of cells were resuspended in 30 ml freshly prepared ice cold Lysis buffer (50 mM HEPES, 1 mM EDTA, 10 mM MgCl2 adjusted to pH=7.4+complete cocktail of protease inhibitor (Roche Diagnostics)); homogenized with Polytron for 1 min, and sonicated on ice for 2×2 minutes at 80% intensity (Vibracell sonicator). The preparation was centrifuged 20 min at 500 g at 4° C., the pellet was discarded and the supernatant centrifuged 1 hour at 43,000 g at 4° C. (19,000 rpm). The pellet was resuspended in 12.5 ml Lysis buffer+12.5 ml Sucrose 20% and homogenized using a Polytron for 1-2 min. The protein concentration was determined by the Bradford method and aliquots were stored at −80° C. until use. For binding studies 60 mg Yttrium silicate SPA beads (Amersham) were mixed with an aliquot of membrane in binding buffer (50 mM Tris, 120 mM NaCl, 5 mM KCl, 2 mM CaCl2, 10 mM MgCl2) for 15 minutes with mixing. 50 ul of bead/membrane mixture was then added to each well of a 96 well plate, followed by 50 ul of 4 nM 3H-Vasopressin (American Radiolabeled Chemicals). For total binding measurement 100 ul of binding buffer were added to the respective wells, for non-specific binding 100 ul of 8.4 mM cold vasopressin and for compound testing 100 ul of a serial dilution of each compound in 2% DMSO. The plate was incubated 1 h at room temperature, centrifuged 1 min at 1000 g and counted on a Packard Top-Count. Non-specific binding counts wee subtracted from each well and data was normalized to the maximum specific binding set at 100%. To calculate an IC 50 the curve was fitted using a non-linear regression model (XLfit), and the Ki was calculated using the Cheng-Prussoff equation.

T1 sequence (P37288 whole entry): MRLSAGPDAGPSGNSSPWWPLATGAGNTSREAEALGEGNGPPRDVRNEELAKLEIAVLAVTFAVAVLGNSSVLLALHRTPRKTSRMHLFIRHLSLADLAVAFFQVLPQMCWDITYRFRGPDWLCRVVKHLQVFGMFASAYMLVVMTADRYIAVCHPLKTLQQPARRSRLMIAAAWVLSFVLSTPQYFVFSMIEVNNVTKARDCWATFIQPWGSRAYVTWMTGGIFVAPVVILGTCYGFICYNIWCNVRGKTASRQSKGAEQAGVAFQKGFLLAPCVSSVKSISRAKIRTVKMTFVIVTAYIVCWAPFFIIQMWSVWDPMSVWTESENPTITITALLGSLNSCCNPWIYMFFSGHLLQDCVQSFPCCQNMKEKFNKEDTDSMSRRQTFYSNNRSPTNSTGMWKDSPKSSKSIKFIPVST

SMILES	Ki [nM]
CN1CCC[C@H]1Cn1cc(C(=O)N2CCC3(CC2)OCc2ncccc23)c2ccc(Cl)cc21 [Compound 4, 1′-[(6-Chloro-1-{[(2S)-1-methylpyrrolidin-2-yl]methyl}-1H-indol-3-yl)carbonyl]-7H-spiro[furo[3,4-b]pyridine-5,4′-piperidine]]	1.55
CN1CCC[C@H]1Cn1cc(C(=O)N2CCC3(CC2)OCc2ccncc23)c2ccc(Cl)cc21 [Compound 13, 1′-[(6-Chloro-1-{[(2S)-1-methylpyrrolidin-2-yl]methyl}-1H-indol-3-yl)carbonyl]-1H-spiro[furo[3,4-c]pyridine-3,4′-piperidine]]	1.1
O=C(c1cn(C[C@@H]2CCCN2)c2cc(Cl)ccc12)N1CCC2(CC1)OCc1ncccc12 [Compound 3, 1′-({6-Chloro-1-[(2S)-pyrrolidin-2-ylmethyl]-1H-indol-3-yl}carbonyl)-7H-spiro[furo[3,4-b]pyridine-5,4′-piperidine]dihydrochloride]	25.1
O=C(c1cn(Cc2cc(F)cc(F)c2)c2cc(Cl)ccc12)N1CCC2(CC1)OCc1cccnc12 [Compound 14, 1′-{[6-Chloro-1-(3,5-difluorobenzyl)-1H-indol-3-yl]carbonyl}-5H-spiro[furo[3,4-b]pyridine-7,4′-piperidine]]	4.27
CC(C)(C)OC(=O)N1CCC[C@H]1Cn1cc(C(=O)N2CCC3(CC2)OCc2cccnc23)c2ccc(Cl)cc21 [Compound 7, tert-Butyl (2S)-2-{[6-chloro-3-(1′H,5H-spiro[furo[3,4-b]pyridine-7,4′-piperidin]-1′-ylcarbonyl)-1H-indol-1-yl]methyl}pyrrolidine-1-carboxylate]	22.9
O=C(c1c[nH]c2cc(Cl)ccc12)N1CCC2(CC1)OCc1ccncc12 [Compound 10, 1′-[(6-Chloro-1H-indol-3-yl)carbonyl]-1H-spiro[furo[3,4-c]pyridine-3,4′-piperidine]]	8.71
CN1CCC[C@H]1Cn1cc(C(=O)N2CCC3(CC2)OCc2cccnc23)c2ccc(Cl)cc21 [Compound 9, 1′-[(6-Chloro-1-1{[(2S)-1-methylpyrrolidin-2-yl]methyl}-1H-indol-3-yl)carbonyl]-5H-spiro[furo[3,4-b]pyridine-7,4′-piperidine]]	1
O=C(c1cn(C[C@@H]2CCCN2)c2cc(Cl)ccc12)N1CCC2(CC1)OCc1ccncc12 [Compound 12, 1′-({6-Chloro-1-[(2S)-pyrrolidin-2-ylmethyl]-1H-indol-3-yl}carbonyl)-1H-spiro[furo[3,4-c]pyridine-3,4′-piperidine]dihydrochloride]	4.57
CC(C)(C)OC(=O)N1CCC[C@H]1Cn1cc(C(=O)N2CCC3(CC2)OCc2ccncc23)c2ccc(Cl)cc21 [Compound 11, tert-Butyl (2S)-2-{[6-chloro-3-(1H, 1′H-spiro[furo[3,4-c]pyridine-3,4′-piperidin]-1′-ylcarbonyl)-1H-indol-1-yl]methyl}pyrrolidine-1-carboxylate]	23.4
O=C(c1c[nH]c2cc(Cl)ccc12)N1CCC2(CC1)OCc1cccnc12 [Compound 6, 1′-[(6-Chloro-1H-indol-3-yl)carbonyl]-5H-spiro[furo[3,4-b]pyridine-7,4′-piperidine]]	5.25
O=C(c1cn(C[C@@H]2CCCN2)c2cc(Cl)ccc12)N1CCC2(CC1)OCc1cccnc12 [Compound 8, 1′-({6-Chloro-1-[(2S)-pyrrolidin-2-ylmethyl]-1H-indol-3-yl}carbonyl)-5H-spiro[furo[3,4-b]pyridine-7,4′-piperidine]dihydrochloride]	3.31
O=C(c1cn(Cc2cc(F)cc(F)c2)c2cc(Cl)ccc12)N1CCC2(CC1)OCc1ncccc12 [Compound 5, 1′-{[6-Chloro-1-(3,5-difluorobenzyl)-1H-indol-3-yl]carbonyl}-7H-spiro[furo[3,4-b]pyridine-5,4′-piperidine]]	4.37

From patent publication US8034937B2, “Azaspiro derivatives” (Hoffmann-La Roche Inc., priority 2006, dated 2011)
